Data set [1] in a line: Aqueous solubility. Format: physicochemical. As to conditions: aqueous buffer, kinetic from dmso stock, room temperature, 2% DMSO. On the procedure:
The aqueous […] was estimated by adding 10 µL of eurycomanone stock solution (10 mM) to 490 µL of aqueous buffer at pH 5.4, pH 7.4 and DMSO in triplicates in deep-well plates. […] The plate was kept on a shaker (300 rpm) at room temperature for 16 h. The plate was then centrifuged at 25 °C, 4000 rpm for 25 min. The supernatant was transferred and analysed using LC-MS/MS.
Peak area 1 = peak area of the compound in 2% DMSO at the different pH levels.
Peak area 2 = peak area of the compound in 100% DMSO.

A short description of data set [2]: Liver microsome metabolic stability, rat. Format: in vitro ADME. As to conditions: rat liver microsomes. On the procedure: The liver microsome stability assay of eurycomanone was estimated using phase I and phase II enzymes in five types of microsomes (mice, rat, dog, monkey, and human). Eurycomanone at 1 mM (20 µL), microsomes at 0.3 mg/mL (20 µL), and 10 mg/mL of alamethicin in 1:1 DMSO and methanol (20 µL) were preincubated at 37 °C for 10 min. The cofactor, 5 mM UDPGA (20 µL), and 1 mM NADPH (20 µL) were added to make the final assay volume of 100 µL. At timepoints 0, 15, 30, 45, 60, and 90 min, […] of the reaction mixture is taken out and added to the stop solution. The supernatants (10,000 rpm, 10 min, 4 °C) were collected and analysed using LC-MS/MS. The standards used for mice and rat liver microsomes were propranolol and dasatinib. The standards used with the dog and monkey liver microsomes were propranolol and midazolam, while the standards used with the human liver microsomes were propranolol and terfinadine.
On the technique in general: Liver microsomes are vesicles of endoplasmic reticulum, rich in cytochrome P450 enzymes.

Data set [3] in a line: Plasma stability, human. Type of data set: in vitro ADME. The following applies: 5 µM, 37 °C, up to 4 h. On the procedure:
(§1) The plasma stability was estimated by preparing 5 µM of eurycomanone in 600 µL plasma in triplicates. The plasma stability of eurycomanone was determined in five types of plasma (mice, rat, dog, monkey, and human). The reaction was kept at 37 °C and ACN (100 µL) was added at timepoints 0, 30 min, and 1, 2, and 4 h to the reaction mixture (100 µL). The supernatant (10,000 rpm, 10 min, 4 °C) was collected and analysed by LC-MS/MS. The standards (propantheline bromide and enalapril) were analysed in triplicates.

A short description of data set [4]: Plasma stability, dog. Type of data set: in vitro ADME. As to conditions: 5 µM, 37 °C, up to 4 h. On the procedure: as §1
Data set [5] in a line: Plasma stability, mice. Type of data set: in vitro ADME. As to conditions: 5 µM, 37 °C, up to 4 h, compared with human, rat and dog plasma. On the procedure: as §1
The nature of data set [6]: Plasma protein binding (rapid equilibrium dialysis), mice. Format: in vitro ADME. The following applies: mouse, pH 7.4, 37 °C, read-out: percentage bound to plasma protein (converted). On the procedure: (§2) The ability of eurycomanone to bind plasma protein was analysed in five types of plasma (mice, rat, dog, monkey, and human). Each type of plasma was spiked with eurycomanone (1 mM) to make the 10 µM test concentration of eurycomanone in the plasma. Equilibrium dialysis buffer (500 µL) at pH 7.4 was added to the right chamber in rapid equilibrium dialysis (RED), while the spiked plasma (300 µL) was added to the left chamber. The Teflon base plate was covered with aluminium foil and left on the shaking incubator at 37 °C for 4 h. The matrix was balanced by mixing 100 µL of the equilibrium buffer with the spiked plasma from the left chamber in RED before adding the stop solution (350 µL) to precipitate out the protein. The supernatant (10,000 rpm, 10 min, 4 °C) was collected and analysed using LC-MS/MS. The standards (propranolol, warfarin, and acebutalol) were analysed in duplicates.
A general note: In equilibrium dialysis free small molecules cross a membrane that holds back macromolecules.

Data set [7] can be described thus: Plasma protein binding (rapid equilibrium dialysis), human. Type of data set: in vitro ADME. As to conditions: pH 7.4; human plasma, 10 µM, 37 °C, 4 h; read-out: percentage bound to plasma protein (converted). On the procedure: as §2
Data set [8] concerns plasma protein. The data set is described as above. Format: in vitro ADME. As to conditions: range over all species' plasma apart from dog (rat, monkey, mice, human). On the procedure: as §2
The subject of data set [9] is HepG2 cell-induced tumours. Also on record: method as in earlier work. The following applies: 17 mg/kg orally, nude mice with HepG2 cell-induced tumours; cited from earlier work.

In brackets after ≈: the same amount, converted by molar mass. Some results are limits rather than exact numbers.

As a reminder, the solubility is the dissolved amount per volume that the medium holds. As usually defined, the half-life is how long it takes for the measured level to halve. Regarding `C=C1[C@@H](O)[C@]2(O)OC[C@]34[C@H]2[C@@]2(C)[C@H](O)C(=O)C=C(C)[C@@H]2C[C@H]3OC(=O)[C@H](O)[C@@]14O` [Eurycomanone], the solubility at 16 h in [1] (pH 5.4, 16 h) worked out at 206 µM (≈ 83.9 µg/mL); in data set [1] (pH 7.4, 16 h), 205 µM (≈ 83.9 µg/mL). Besides, the “Half-life (t1/2)” value in data set [2] was greater than 1.5 h. In data set [2], this molecule had a half-life at 200 µM greater than 90 min. Moreover, the CLint scaled at 200 µM in [2] (read-out: Intrinsic clearance (Clint)) is 83.2 mL/min/kg. In addition, the plasma stability result was “highly stable” in data set [3], “highly stable” in [4] and “slightly lower” in data set [5]. The fraction unbound at 4 h, 10 µM in data set [6] is 0.784; in [7], 0.611. Moreover, the “fraction of unbound eurycomanone” value in data set [8] is on record as 61.1–78.4%. Moreover, the tumour suppression result in data set [9] is “tumour suppression ability was demonstrated”.

Source of the values: article PMC6161288, “Bioavailability of Eurycomanone in Its Pure Form and in a Standardised Eurycoma longifolia Water Extract” (Pharmaceutics, 2018).
